This is an account of results in patent US20250099485A1, “COMPOSITIONS FOR PROMOTING HAIR GROWTH” (ESTETRA SRL, priority 2021, published 2025).

The subject of series [1] is primary human epidermal keratinocytes. Briefly: Keratinocyte scratch assay. In kind it is cell-based. As to conditions: 10^−10M and 10^−7M, culture condition with 15% HKGS, compared with E2. Here is the method:
(§1) Human skin was transferred to the laboratory in holding media (DMEM containing 4% penicillin-streptomycin and Amphotericin B solution) within 30 minutes of collection. Once defatted, the skin was rinsed in HBSS with 4% PSA followed by DPBS without antibiotics, then cut into thin strips and floated on 0.2% Dispase II in DPBS overnight at 4° C., followed by manual separation of the epidermis from the dermis. Primary human epidermal keratinocytes and primary human dermal fibroblasts were then isolated.
(§2) Confluent wells of both primary keratinocytes and fibroblasts were subjected to a highly validated scratch wounding procedure (using a 1 mL sterile filter tip). Post-scratching, cells were rinsed with DPBS and cell-specific media containing treatments added to each well. Cells were imaged on a ptychographic live cell imaging platform (Livecyte 2TM, Phasefocus) for 24-48 hours. Automated tracking of individual unlabeled cells will be combined with 3D cell measurements to quantify a range of wound-relevant cell parameters including scratch closure rate.
Dose range finding experiments were conducted with E4 (10^−10M to 10^−6M) and E2 with and without Mitomycin C (MMC, to inhibit proliferation) using vehicle as negative controls.

The test system of series [2] is CD34 positive cells in the suprabulbar ORS. Put plainly: Hair follicle organ culture: CD34 expression, stem cell progeny. It counts as cell-based, human. The settings on record: vs vehicle. How it is done: (§3) 12-44 full-length frontotemporal hair follicles (HF) were obtained from four human female donors >50 years old. Donors were caucasian female subjects […], respectively (Donor 1: 12 temporal anagen HFs; Donor 2: 29; Donor 3: 44; Donor 4: 32). After microdissection from skin as described (Edelkamp et al., Methods Mol Biol, 2020, 2154:105-119; and Langan et al., Exp Dermatol, 2015, December; 24(12):903-1), HFs were placed in adequate culture medium and allowed a 24 h rest period to allow them to recover from the trauma of microdissection. Test substance (either vehicle (0.3% EtOH) or E4 at concentrations of 30 μM, 3 μM or 300 nM) was added to the medium at the end of the 24 h. Total culturing time was 5-7 days depending on the studied parameters and the experimental question. The experimental design for the hair follicle organ culture experiment is depicted in FIG. 12. Longer term culture experiments may be used to analyze the capacity to delay the onset of catagen.
CD34 is a marker expressed by the progeny of HF bulge stem cells. It is expressed in the most external layer of the outer root sheet (ORS) below the isthmus (sub-bulge to suprabulbar regions) (Purba et al., BioEssays, 2014, May; 36(5):513-25). CD34 expression and percentage of CD34^+ cells were analyzed in the suprabulbar ORS.

For series [3], the system named is alkaline phosphatase in dermal papilla (DP). Briefly: Hair follicle organ culture: alkaline phosphatase activity, DP inductivity. It counts as cell-based, human. As to conditions: all tested concentrations, vs vehicle. How it is done:
as §3
Alkaline phosphatase is an indicator of DP inductivity (Yang, J Dermatol Sci, 2010, January; 57(1):2-11). Alkaline phosphatase in situ activity was measured in the DP.

For series [4] the following is noted: female, Lister Hooded, rat, in vivo, po, 15 mg/kg, 0.5 h.
Experimental: Tissue distribution was determined in female rats (partially pigmented and non-pigmented) using [^14C]-estetrol.
A group of six female Lister Hooded rats each received a single oral dose of [^14C]-estetrol. At each selected time (see below) one animal was killed (by overdose of CO2) followed by immediate snap freezing in hexane/solid CO2. The carcasses were retained for examination of the tissue distribution of radioactivity using the technique of quantitative whole body autoradiography (QWBA).
Times for analysis were: (0.5, 8, and 24 hours, 7, 14 and 35 days).
Frozen carcasses were subjected to whole-body autoradiography.
Where concentrations are reported, radioactivity was assumed to be associated with [^14C]-estetrol or any metabolic products derived from [^14C]-estetrol. The specific activities of the dosed test compounds were used for the calculation of concentrations in all cases. Recoveries of radioactivity are reported as percentage of administered radioactivity (% dose). Radioactivity concentrations are also reported as μg equivalents/g.
Series [5] has as its system human monocytes. Briefly: Immune cell polarization (qPCR NOS2/ARG1), human monocytes. It counts as cell-based. The settings on record: activated human monocytes, qPCR marker. How it is done: Immune cell polarization was evaluated in vitro using markers for M1/TH-1 (NOS2) and M2/TH-2 (ARG1) phenotype with human monocytes and mouse monocytes (BMDM bone marrow derived monocytes).
Human blood was collected under national ethical approval with full informed written patient consent. Freshly isolated human blood was collected in EDTA vacutainer tubes, diluted 1:1 in PBS and gently layered onto histopaque (Merck). Tubes were immediately centrifuged at 100×g for 30 minutes and the whitish buffy layer formed at the histopaque interface aspirated and washed (centrifuged 100×g, 10 minutes) twice with sterile PBS. Untouched classical (CD14++, CD16−) monocytes were isolated from the washed buffy layer cells using the Miltenyi Classical Monocyte Isolation Kit, LS columns and a MidiMACs separator (Miltenyi). Isolated cells were seeded into tissue culture plates and stimulated to differentiate using PMA.
An experiment was conducted to evaluate the anti-inflammatory effects of E4 or vehicle (negative control). qPCR methodology was used to assess the effects of E2 and E4 on immune cell polarization using well validated marker of pro-inflammatory (NOS2 for MI/TH-1 phenotype) and anti-inflammatory (ARG1 for ME/TH-2 phenotype) activity.
For orientation: In qPCR the cycle at which signal appears reflects the starting amount.

In series [6] the test system is primary human dermal fibroblasts. Put plainly: Fibroblast monolayer scratch assay, human. The settings on record: 10^−10 M to 10^−6 M, three female donors, compared with E2. It counts as cell-based. Here is the method: as §1, §2
Dose range finding experiments were conducted with E4 (10^−10M to 10^−6M) and E2 with and without Mitomycin C (MMC, to inhibit proliferation) using vehicle as negative controls. […]

Series [7] has as its system DP fibroblasts. Briefly: Hair follicle organ culture: DP fibroblast emigration. The settings on record: vs vehicle. In kind it is cell-based, human. How it is done: as §3
The DP resident fibroblasts are subjected to migration in the transition between anagen and catagen phase (Hawkshaw et al., Journ of Invest Dermatol, 2015, 135(8):2129-2132). In catagen onset, DP fibroblasts emigrate to the dermal cup through the DP stalk, whereas at anagen induction, they immigrate back in the DP. Quantifying the number of DP fibroblasts present in the DP stalk and in the DP (Kloepper et al., Exp Dermatol, 2010, March; 19(3):305-12) is therefore a direct readout for anagen induction or catagen promotion. K 15 expression—Stem cells.

The test system of series [8] is versican in dermal papilla (DP). Briefly: Hair follicle organ culture: versican expression, DP inductivity. It counts as cell-based, human. As to conditions: all tested concentrations, vs vehicle. How it is done: as §3
Versican, a large chondroitin sulfate proteoglycan molecule, is expressed in DP in anagen HFs and diminishes in catagen HFs and its expression correlates with hair inductive properties (Yang, J Dermatol Sci 2010). Versican intensity was analyzed in the DP.

For `C[C@]12CC[C@@H]3c4ccc(O)cc4CC[C@H]3[C@@H]1[C@@H](O)[C@@H](O)[C@@H]2O` [E4, 1,3,5 (10)-estratrien-3,15alpha,16alpha,17beta-tetrol], in series [1], the “impact on keratinocyte migration, scratch assay” value was “seems higher than the impact of E2”. Also, the “increased percentage of CD34 positive cells in the suprabulbar ORS” value in series [2] (300 nM) was “tendentially”; in series [2] (3 μM), “significantly”; in series [2] (30 μM) it was “tendentially”. For the same compound, the “alkaline phosphatase activity in DP cells” value in series [3] is given as “tendentially increased”. Besides, the “Total amount of radioactivity in tissue, Skin (non-pigmented)” value in series [4] is on record as 1.1 % dose administered/tissue. Besides, the “Total amount of radioactivity in tissue, Skin (pigmented)” value in series [4] was 1.7 % dose administered/tissue. The “immune cell polarization, human monocytes” value in series [5] is reported as “switch from subtype M1 (pro-inflammatory) to subtype M2 (healing)”. Further, the “in vitro wound closure, human fibroblasts scratch assay” value in series [6] is recorded as “promotes in vitro wound closure to a similar extent as E2”. Further, the “density of cells in the inductive dermal cup” value in series [7] (300 nM, 3 μM, 30 μM) is reported as “no significant impact”. Besides, the “total number of cells in the DP stalk” value in series [7] (300 nM) and in series [7] (3 μM) was “significantly reduced” in each case. Also, the “density of cells in the DP stalk” value in series [7] (all concentrations) is listed as “tendentially decreased”. Besides, the “density of cells in the DP” value in series [7] (all tested concentrations) is recorded as “did not strikingly affect”. In addition, the “versican expression in DP cells” value in series [8] was “tendentially increased”.
